Earlier results, collected in patent publication US20150336981A1, “MODIFIED POLYPHENOLS AND MODIFIED POLYPHENOL COMPOSITIONS” (CELLAROUGE PTY LTD, priority 2012, published 2015).

Tested on: high-carbohydrate, high fat diet-fed rats
Conditions: HEA: high-carbohydrate, high fat diet + ellagic acid 0.8 g/kg food

O=c1oc2c(O)c(O)cc3c(=O)oc4c(O)c(O)cc1c4c23 [ellagic acid]
AUC: 696 ± 11 mmol·min/L
Abdominal circumference: 21.3 ± 0.3 cm
Abdominal fat pads: 520 ± 29 mg/mm tibial length
BMI: 0.72 ± 0.02 g/cm^2
Basal blood glucose: 3.9 ± 0.2 mmol/L
Feed efficiency: 0.31 ± 0.02 g/kJ
Final body weight: 473 ± 2 g
Food intake: 21.0 ± 0.4 g
Plasma C-reactive protein: 2.40 ± 0.07 µmol/L
Plasma non-esterified fatty acids: 1.7 ± 0.2 mmol/L
Plasma total cholesterol: 1.5 ± 0.1 mmol/L
Plasma triglycerides: 0.5 ± 0.1 mmol/L
Plasma urea: 6.2 ± 0.4 mmol/L
Plasma uric acid: 44.3 ± 3.8 µmol/L
Water intake: 19.0 ± 0.4 mL
